# Tested on: Fadu cells
# Assay: Fadu Cell Growth Inhibition Test (MTT Assay)
# Assay type: cell-based
# Conditions: Homo sapiens, 72 h incubation
# How it was run: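 Fadu head and neck cancer cells in EMEM + 10% FBS, 6000 cells/well, dosed next day and incubated 72 h at 37 °C, 5% CO2. MTT 0.5 mg/ml for 3 h, DMSO solubilization, OD at 490 nm; inhibition ratio from positive and negative controls, IC50 from fitted curve.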
row,SMILES,IC50 [µM]
1,"CN(C)C/C=C/C(=O)Nc1cc2c(Nc3cccc(Br)c3)c(C#N)cnc2cc1OC1CCOC1 (stereo not drawn) [Example 7, (E)-N-(4-(3-BROMOPHENYLAMINO)-3-CYANO-7-(TETRAHYDROFURAN-3-YL-OXY)QUINOLIN-6-YL)-4-(DIMETHYLAMINO)-BUT-2-ENAMIDE]",0.474
2,"CN(C)C/C=C/C(=O)Nc1cc2c(Nc3ccc(OCc4ccccc4F)c(Cl)c3)c(C#N)cnc2cc1OC1CCOC1 (stereo not drawn) [Example 8, (E)-N-(4-(4-(2-FLUOROBENZYLOXY)-3-CHLOROPHENYLAMINO)-3-CYANO-7-(TETRAHYDROFURAN-3-YL-OXY)QUINOLIN-6-YL)-4-(DIMETHYLAMINO)-BUT-2-ENAMIDE]",0.188
3,"CN(C)C/C=C/C(=O)Nc1cc2c(Nc3ccc(OCc4cccc(Cl)c4)c(Cl)c3)c(C#N)cnc2cc1OC1CCOC1 (stereo not drawn) [Example 11, (E)-N-(4-(4-(3-CHLOROBENZYLOXY)-3-CHLOROPHENYLAMINO)-3-CYANO-7-(TETRAHYDROFURAN-3-YL-OXY)QUINOLIN-6-YL)-4-(DIMETHYLAMINO)-BUT-2-ENAMIDE]",0.187
4,"CN(C)C/C=C/C(=O)Nc1cc2c(Nc3ccc(OCc4ccccc4)c(Cl)c3)c(C#N)cnc2cc1OC1CCOC1 (stereo not drawn) [Example 12, (E)-N-(4-(4-(BENZYLOXY)-3-CHLOROPHENYLAMINO)-3-CYANO-7-(TETRAHYDROFURAN-3-YL-OXY)QUINOLIN-6-YL)-4-(DIMETHYLAMINO)-BUT-2-ENAMIDE]",0.202
5,"CN(C)C/C=C/C(=O)Nc1cc2c(Nc3ccc(OCc4ccccc4C#N)c(Cl)c3)c(C#N)cnc2cc1OC1CCOC1 (stereo not drawn) [Example 13, (E)-N-(4-(4-(2-CYANOBENZYLOXY)-3-CHLOROPHENYLAMINO)-3-CYANO-7-(TETRAHYDROFURAN-3-YL-OXY)QUINOLIN-6-YL)-4-(DIMETHYLAMINO)-BUT-2-ENAMIDE]",0.3
6,"CN(C)C/C=C/C(=O)Nc1cc2c(Nc3ccc(OCc4cccc(C#N)c4)c(Cl)c3)c(C#N)cnc2cc1OC1CCOC1 (stereo not drawn) [Example 15, (E)-N-(4-(4-(3-CYANOBENZYLOXY)-3-CHLOROPHENYLAMINO)-3-CYANO-7-(TETRAHYDROFURAN-3-YL-OXY)QUINOLIN-6-YL)-4-(DIMETHYLAMINO)-BUT-2-ENAMIDE]",0.26
7,"CN(C)C/C=C/C(=O)Nc1cc2c(Nc3ccc(OCc4ccccn4)c(Cl)c3)c(C#N)cnc2cc1O[C@@H]1CCOC1 [Example 139, (R,E)-N-(4-(3-CHLORO-4-(PYRIDIN-2-YL-METHOXY)PHENYLAMINO)-3-CYANO-7-(TETRAHYDROFURAN-3-YL-OXY)QUINOLIN-6-YL)-4-(DIMETHYLAMINO)-BUT-2-ENAMIDE]",0.201
8,"CN(C)C/C=C/C(=O)Nc1cc2c(Nc3ccc(F)c(Cl)c3)c(C#N)cnc2cc1O[C@H]1CCOC1 [Example 142, (S,E)-N-(4-(3-CHLORO-4-FLUOROPHENYLAMINO)-3-CYANO-7-(TETRAHYDROFURAN-3-YL-OXY)QUINOLIN-6-YL)-4-(DIMETHYLAMINO)-BUT-2-ENAMIDE]",0.115
9,"C#Cc1cccc(Nc2c(C#N)cnc3cc(O[C@H]4CCOC4)c(NC(=O)/C=C/CN(CC)CC)cc23)c1 [Example 143, (S,E)-N-(3-CYANO-4-(3-ETHYNYLPHENYLAMINO)-7-(TETRAHYDROFURAN-3-YL-OXY)QUINOLIN-6-YL)-4-(DIETHYLAMINO)-BUT-2-ENAMIDE]",0.127
10,"C#Cc1cccc(Nc2c(C#N)cnc3cc(O[C@H]4CCOC4)c(NC(=O)/C=C/CN4CCCCC4)cc23)c1 [Example 144, (S,E)-N-(3-CYANO-4-(3-ETHYNYLPHENYLAMINO)-7-(TETRAHYDROFURAN-3-YL-OXY)QUINOLIN-6-YL)-4-(PIPERIDIN-1-YL)-BUT-2-ENAMIDE]",0.103
11,"C#Cc1cccc(Nc2c(C#N)cnc3cc(O[C@H]4CCOC4)c(NC(=O)/C=C/CN4CCOCC4)cc23)c1 [Example 145, (S,E)-N-(3-CYANO-4-(3-ETHYNYLPHENYLAMINO)-7-(TETRAHYDROFURAN-3-YL-OXY)QUINOLIN-6-YL)-4-(MORPHOLIN-4-YL)-BUT-2-ENAMIDE]",0.194
12,"C#Cc1cccc(Nc2c(C#N)cnc3cc(O[C@H]4CCOC4)c(NC(=O)/C=C/CNC(C)(C)C)cc23)c1 [Example 146, (S,E)-N-(3-CYANO-4-(3-ETHYNYLPHENYLAMINO)-7-(TETRAHYDROFURAN-3-YL-OXY)QUINOLIN-6-YL)-4-(TERT-BUTYLAIMINO)-BUT-2-ENAMIDE]",0.2

# From patent US9187458B2, “Cyanoquinoline derivatives” (Tianjin Hemay Bio-Tech Co., LTD., priority 2010, dated 2015)
